Drawing on US20040156869A1, “2-substituted quinazolin-4-ylamine analogues” (Neurogen Corporation, priority 2002, published 2004), this text covers Ki for 29 molecules.

Some results are limits rather than exact numbers.

One assay deals with human capsaicin receptor (VR1) (Homo sapiens, UniProt Q8NER1). Put plainly: Capsaicin receptor binding assay ([3H]RTX competition, VR1-transfected HEK293 membranes).
Chain of human capsaicin receptor (VR1) (Q8NER1 whole entry): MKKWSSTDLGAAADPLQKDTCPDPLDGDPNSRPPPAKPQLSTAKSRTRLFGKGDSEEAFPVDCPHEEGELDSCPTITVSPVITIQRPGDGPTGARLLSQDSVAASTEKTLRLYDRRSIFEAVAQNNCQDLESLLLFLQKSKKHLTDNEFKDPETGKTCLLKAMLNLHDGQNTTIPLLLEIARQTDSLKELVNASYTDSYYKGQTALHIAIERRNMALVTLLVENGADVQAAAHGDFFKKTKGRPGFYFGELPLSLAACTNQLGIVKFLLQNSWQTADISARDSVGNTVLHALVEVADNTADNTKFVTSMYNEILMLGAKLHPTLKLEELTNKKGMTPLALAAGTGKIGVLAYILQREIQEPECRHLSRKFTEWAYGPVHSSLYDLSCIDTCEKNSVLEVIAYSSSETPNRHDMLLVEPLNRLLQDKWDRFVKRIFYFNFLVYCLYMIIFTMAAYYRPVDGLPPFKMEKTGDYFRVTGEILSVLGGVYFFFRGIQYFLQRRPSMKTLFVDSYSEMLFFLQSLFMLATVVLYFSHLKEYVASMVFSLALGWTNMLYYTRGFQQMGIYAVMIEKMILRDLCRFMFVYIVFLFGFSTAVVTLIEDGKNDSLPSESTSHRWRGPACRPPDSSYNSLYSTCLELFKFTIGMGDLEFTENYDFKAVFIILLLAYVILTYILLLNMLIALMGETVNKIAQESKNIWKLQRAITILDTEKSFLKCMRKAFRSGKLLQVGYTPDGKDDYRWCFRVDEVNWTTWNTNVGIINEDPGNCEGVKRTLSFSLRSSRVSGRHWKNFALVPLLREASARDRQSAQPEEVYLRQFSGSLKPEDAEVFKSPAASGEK
Conditions: not given
Regarding `CCNCc1nc(Nc2ccc(C(F)(F)F)cc2)c2ccc(-c3ncccc3C(F)(F)F)cc2n1` [Compound 531, [2-Ethylaminomethyl-7-(3-trifluoromethyl-pyridin-2-yl)-quinazolin-4-yl]-(4-trifluoromethyl-phenyl)-amine], the Ki (in general, the equilibrium dissociation constant of an inhibitor or competing ligand from its target) is under 1000 nM.
On the same count and under the same terms, next, `OCCNCc1nc(Nc2ccc(C(F)(F)F)cc2)c2ccc(-c3ncccc3C(F)(F)F)cc2n1` [Compound 534, 2-{[4-(4-Trifluoromethyl-phenylamino)-7-(3-trifluoromethyl-pyridin-2-yl)-quinazolin-2-ylmethyl]-amino}-ethanol]: under 1000 nM; `COCCNCc1nc(Nc2ccc(C(F)(F)F)cc2)c2ccc(-c3ncccc3C(F)(F)F)cc2n1` [Compound 535, [2-[(2-Methoxy-ethylamino)-methyl]-7-(3-trifluoromethyl-pyridin-2-yl)-quinazolin-4-yl]-(4-trifluoromethyl-phenyl)-amine]: under 1000 nM; `CC(C)CNCc1nc(Nc2ccc(C(F)(F)F)cc2)c2ccc(-c3ncccc3C(F)(F)F)cc2n1` [Compound 536, [2-(Isobutylamino-methyl)-7-(3-trifluoromethyl-pyridin-2-yl)-quinazolin-4-yl]-(4-trifluoromethyl-phenyl)-amine]: under 1000 nM.
`CC(C)CCNCc1nc(Nc2ccc(C(F)(F)F)cc2)c2ccc(-c3ncccc3C(F)(F)F)cc2n1` [Compound 537, [2-[(3-Methyl-butylamino)-methyl]-7-(3-trifluoromethyl-pyridin-2-yl)-quinazolin-4-yl]-(4-trifluoromethyl-phenyl)-amine] yielded a Ki of under 1000 nM.
The molecule `CCCCCCNCc1nc(Nc2ccc(C(F)(F)F)cc2)c2ccc(-c3ncccc3C(F)(F)F)cc2n1` [Compound 539, [2-Hexylaminomethyl-7-(3-trifluoromethyl-pyridin-2-yl)-quinazolin-4-yl]-(4-trifluoromethyl-phenyl)-amine] yielded an inhibition constant Ki of under 1000 nM.
Molecule `CCCCCCCCNCc1nc(Nc2ccc(C(F)(F)F)cc2)c2ccc(-c3ncccc3C(F)(F)F)cc2n1` [Compound 540, [2-Octylaminomethyl-7-(3-trifluoromethyl-pyridin-2-yl)-quinazolin-4-yl]-(4-trifluoromethyl-phenyl)-amine] gave a Ki of under 1000 nM.
On the same count and under the same terms, next, `FC(F)(F)c1ccc(Nc2nc(CN3CCOCC3)nc3cc(-c4ncccc4C(F)(F)F)cnc23)cn1` [Compound 542, [2-Morpholin-4-ylmethyl-7-(3-trifluoromethyl-pyridin-2-yl)-pyrido[3,2-d]pyrimidin-4-yl]-(6-trifluoromethyl-pyridin-3-yl)-amine]: under 1000 nM; `FC(F)(F)c1ccc(Nc2nc(-c3ccc(N4CCCC4)nc3)nc3cc(-c4ncccc4C(F)(F)F)ccc23)cc1` [Compound 543, [2-(6-Pyrrolidin-1-yl-pyridin-3-yl)-7-(3-trifluoromethyl-pyridin-2-yl)-quinazolin-4-yl]-(4-trifluoromethyl-phenyl)-amine]: under 1000 nM; `CC1CN(CCCc2nc(Nc3ccc(C(F)(F)F)nc3)c3ccc(-c4ncccc4C(F)(F)F)cc3n2)CC(C)O1` (centres unmarked) [Compound 544, [2-[3-(2,6-Dimethyl-morpholin-4-yl)-propyl]-7-(3-trifluoromethyl-pyridin-2-yl)-quinazolin-4-yl]-(6-trifluoromethyl-pyridin-3-yl)-amine]: under 1000 nM.
The same measure, in the same setting: next, `FC(F)(F)c1cccc(Nc2nc(CN3CCOCC3)nc3cc(-c4ncccc4C(F)(F)F)cnc23)n1` [Compound 545, [2-Morpholin-4-ylmethyl-7-(3-trifluoromethyl-pyridin-2-yl)-pyrido[3,2-d]pyrimidin-4-yl]-(6-trifluoromethyl-pyridin-2-yl)-amine]: under 1000 nM; `C[C@@H]1CN(Cc2nc(Nc3ccc(C(F)(F)F)cc3)c3ncc(-c4ncccc4C(F)(F)F)cc3n2)C[C@H](C)O1` [Compound 546, [2-(2,6-Dimethyl-morpholin-4-ylmethyl)-7-(3-trifluoromethyl-pyridin-2-yl)-pyrido[3,2-d]pyrimidin-4-yl]-(4-trifluoromethyl-phenyl)-amine (cis)]: under 1000 nM; `C[C@@H]1CN(Cc2nc(Nc3ccc(C(F)(F)F)nc3)c3ncc(-c4ncccc4C(F)(F)F)cc3n2)C[C@H](C)O1` [Compound 547, [2-(2,6-Dimethyl-morpholin-4-ylmethyl)-7-(3-trifluoromethyl-pyridin-2-yl)-pyrido[3,2-d]pyrimidin-4-yl]-(6-trifluoromethyl-pyridin-3-yl)-amine (cis)]: under 1000 nM.
Consider `FC(F)(F)c1ccc(Nc2nc(CN3CCSCC3)nc3cc(-c4ncccc4C(F)(F)F)ccc23)cc1` [Compound 548, [2-Thiomorpholin-4-ylmethyl-7-(3-trifluoromethyl-pyridin-2-yl)-quinazolin-4-yl]-(4-trifluoromethyl-phenyl)-amine], for which the inhibition constant (Ki) is under 1000 nM.
`CC1(C)CCCN(Cc2nc(Nc3ccc(C(F)(F)F)cc3)c3ccc(-c4ncccc4C(F)(F)F)cc3n2)C1` [Compound 549, [2-(3,3-Dimethyl-piperidin-1-ylmethyl)-7-(3-trifluoromethyl-pyridin-2-yl)-quinazolin-4-yl]-(4-trifluoromethyl-phenyl)-amine] displayed an inhibition constant (Ki) of under 1000 nM.
In turn, `CCCN(CCC)Cc1nc(Nc2ccc(C(F)(F)F)cc2)c2ccc(-c3ncccc3C(F)(F)F)cc2n1` [Compound 550, [2-Dipropylaminomethyl-7-(3-trifluoromethyl-pyridin-2-yl)-quinazolin-4-yl]-(4-trifluoromethyl-phenyl)-amine] returned an inhibition constant (Ki) of under 1000 nM.
For the molecule `CCCN(Cc1nc(Nc2ccc(C(F)(F)F)cc2)c2ccc(-c3ncccc3C(F)(F)F)cc2n1)CC1CC1` [Compound 551, [2-[(Cyclopropylmethyl-propyl-amino)-methyl]-7-(3-trifluoromethyl-pyridin-2-yl)-quinazolin-4-yl]-(4-trifluoromethyl-phenyl)-amine], the inhibitory constant (Ki) was under 1000 nM.
`CC1CC(C)CN(Cc2nc(Nc3ccc(C(F)(F)F)cc3)c3ccc(-c4ncccc4C(F)(F)F)cc3n2)C1` (centres unmarked) [Compound 552, [2-(3,5-Dimethyl-piperidin-1-ylmethyl)-7-(3-trifluoromethyl-pyridin-2-yl)-quinazolin-4-yl]-(4-trifluoromethyl-phenyl)-amine]: the Ki is under 1000 nM.
The molecule `O=S1(=O)CCN(Cc2nc(Nc3ccc(C(F)(F)F)nc3)c3ccc(-c4ncccc4C(F)(F)F)cc3n2)CC1` [Compound 553, [2-(1,1-dioxo-1λ^6-thiomorpholin-4-ylmethyl)-7-(3-trifluoromethyl-pyridin-2-yl)-quinazolin-4-yl]-(6-trifluoromethyl-pyridin-3-yl)-amine] displayed a Ki of under 1000 nM.
`FC(F)(F)c1ccc(Nc2nc(CNC3CCSCC3)nc3cc(-c4ncccc4C(F)(F)F)ccc23)cn1` [Compound 554, [2-[(Tetrahydro-thiopyran-4-ylamino)-methyl]-7-(3-trifluoromethyl-pyridin-2-yl)-quinazolin-4-yl]-(6-trifluoromethyl-pyridin-3-yl)-amine] came in with a Ki of under 1000 nM.
On to `FC(F)(F)c1ccc(Nc2nc(CN3CCSCC3)nc3cc(-c4ncccc4C(F)(F)F)ccc23)cn1` [Compound 555, [2-Thiomorpholin-4-ylmethyl-7-(3-trifluoromethyl-pyridin-2-yl)-quinazolin-4-yl]-(6-trifluoromethyl-pyridin-3-yl)-amine], for which the Ki is under 1000 nM.
`CC1(C)CCCN(Cc2nc(Nc3ccc(C(F)(F)F)nc3)c3ccc(-c4ncccc4C(F)(F)F)cc3n2)C1` [Compound 556, [2-(3,3-Dimethyl-piperidin-1-ylmethyl)-7-(3-trifluoromethyl-pyridin-2-yl)-quinazolin-4-yl]-(6-trifluoromethyl-pyridin-3-yl)-amine] yielded an inhibition constant (Ki) of under 1000 nM.
`FC(F)(F)c1ccc(Nc2nc(CNCc3ccccc3)nc3cc(-c4ncccc4C(F)(F)F)ccc23)nc1` [Compound 560, [2-(Benzylamino-methyl)-7-(3-trifluoromethyl-pyridin-2-yl)-quinazolin-4-yl]-(5-trifluoromethyl-pyridin-2-yl)-amine]: the inhibition constant (Ki) was under 1000 nM.
`CC1CN(CCc2nc(Nc3ccc(C(F)(F)F)cc3)c3ccc(-c4ncccc4C(F)(F)F)cc3n2)CC(C)O1` (centres unmarked) [Compound 561, [2-[2-(2,6-Dimethyl-morpholin-4-yl)-ethyl]-7-(3-trifluoromethyl-pyridin-2-yl)-quinazolin-4-yl]-(4-trifluoromethyl-phenyl)-amine] yielded a Ki of under 1000 nM.
`O=CN1CCN(CCc2nc(Nc3ccc(C(F)(F)F)cc3)c3ccc(-c4ncccc4C(F)(F)F)cc3n2)CC1` [Compound 562, 4-{2-[4-(4-Trifluoromethyl-phenylamino)-7-(3-trifluoromethyl-pyridin-2-yl)-quinazolin-2-yl]-ethyl}-piperazine-1-carbaldehyde] returned a Ki of under 1000 nM.
As for `OCCC1CCN(CCCc2nc(Nc3ccc(C(F)(F)F)cc3)c3ccc(-c4ncccc4C(F)(F)F)cc3n2)CC1` [Compound 568, 2-(1-{3-[4-(4-Trifluoromethyl-phenylamino)-7-(3-trifluoromethyl-pyridin-2-yl)-quinazolin-2-yl]-propyl}-piperidin-4-yl)-ethanol], the Ki was under 1000 nM.

The same assay, now with this note: Table III; capsaicin receptor binding.
`CCCN(CCC)Cc1nc(Nc2ccc(C(F)(F)F)nc2)c2ccc(-c3ncccc3C(F)(F)F)cc2n1` [Compound 557, [2-Dipropylaminomethyl-7-(3-trifluoromethyl-pyridin-2-yl)-quinazolin-4-yl]-(6-trifluoromethyl-pyridin-3-yl)-amine] displayed an inhibition constant (Ki) of under 1000 nM.
In turn, `CCCN(Cc1nc(Nc2ccc(C(F)(F)F)nc2)c2ccc(-c3ncccc3C(F)(F)F)cc2n1)CC1CC1` [Compound 558, [2-[(Cyclopropylmethyl-propyl-amino)-methyl]-7-(3-trifluoromethyl-pyridin-2-yl)-quinazolin-4-yl]-(6-trifluoromethyl-pyridin-3-yl)-amine] yielded a Ki of under 1000 nM.
Molecule `CC1CC(C)CN(Cc2nc(Nc3ccc(C(F)(F)F)nc3)c3ccc(-c4ncccc4C(F)(F)F)cc3n2)C1` (centres unmarked) [Compound 559, [2-(3,5-Dimethyl-piperidin-1-ylmethyl)-7-(3-trifluoromethyl-pyridin-2-yl)-quinazolin-4-yl]-(6-trifluoromethyl-pyridin-3-yl)-amine] registered an inhibition constant Ki of under 1000 nM.
